From patent US9446031B2, “Compositions and methods for neovascularization” (National University of Singapore, priority 2012, dated 2016)
“Also recorded” adds a separate entry of the source.

What was measured:
Type in all cases: cell-based, human
[1] = system: HUVEC; assay: Proteome profiler of angiogenic proteins secreted by endothelial cells; details: single agent compared with CPX+S1P
Description: (§1) FIG. 4: CPX and S1P induce secretion of different angiogenic proteins by endothelial cells and fibroblasts. […] (E) and (J): representative images of 3 proteomic profiler membranes showing differences in protein secretion between CPX and S1P treated group and non-treated group (culture media control). (K) and (L): ELISA quantitation of PlGF and VEGF corroborating semi-quantitative results shown in A-I. The negative values in the plots denote the cellular uptake of the measured proteins as opposed to secrete them. * p<0.05 As the experimental set-up favoured soluble factors as messengers between the two cell types the secretion of angiogenic factors by fibroblasts and endothelial cells in the presence of CPX and S1P, respectively, was assessed. Proteome profiler data indicated the increased secretion of several proteins including PlGF (6 fold), IL-8 (3 fold), EGF (2.9 fold) and endothelin-1 (1.5 fold) by CPX+S1P by endothelial cells.

[2] = system: IMR-90 fibroblasts; assay: Proteome profiler of angiogenic proteins secreted by fibroblasts; details: single agent compared with CPX+S1P
Description: as §1, with “In fibroblasts, CPX+S1P expression” for “Proteome profiler data indicated the increased secretion”, “HGF (1.4” for “several proteins including PlGF (6”, “IGFBP-2 (1.8” for “IL-8 (3”, “uPA (1.6” for “EGF (2.9”, “VEGF (11 fold). […] In fibroblasts an increase of VEGF secretion which was 1819±754.1 (±standard error) pg/ml-Million cell-day was confirmed.” for “endothelin-1 (1.5 fold) by CPX+S1P by endothelial cells.”

[3] = system: IMR90 cells; assay: ELISA of MCP-1 secreted by IMR90 cultured in EC conditioned medium
Experimental: FIG. 5: Endothelial CM modulates growth factor secretion by fibroblasts. (A) ELISA: fibroblasts secrete 5 times more MCP-1 cultured in EC CM. […] (B) and (C): semi-quantitative proteomic array plots showing clearance of EC secreted endothelin-1 and EGF from culture media in the presence of fibroblasts. […] To study the influence of endothelial cells on fibroblasts IMR90 cells were cultured in EC conditioned medium with or without the addition of CPX+S1P, and quantified factors secreted by fibroblasts by ELISA. […] Endothelial cell CM induced the secretion of MCP-1 by fibroblasts by 3-fold in the absence of any CPX+S1P induction, however, the combination of both pharmacological agents increased MCP-1 secretion by a further 20%.

[4] = system: endothelia (HUVEC); assay: ELISA quantitation of PlGF secretion by endothelial cells
Description: (§2) FIG. 4: CPX and S1P induce secretion of different angiogenic proteins by endothelial cells and fibroblasts. […] (E) and (J): representative images of 3 proteomic profiler membranes showing differences in protein secretion between CPX and S1P treated group and non-treated group (culture media control). (K) and (L): ELISA quantitation of PlGF and VEGF corroborating semi-quantitative results shown in A-I. The negative values in the plots denote the cellular uptake of the measured proteins as opposed to secrete them. * p<0.05 In fibroblasts, CPX+S1P expression of HGF (1.4 fold), IGFBP-2 (1.8 fold), uPA (1.6 fold) and VEGF (11 fold). […] In fibroblasts an increase of VEGF secretion which was 1819±754.1 (±standard error) pg/ml-Million cell-day was confirmed.

[5] = system: fibroblasts (IMR-90); assay: ELISA quantitation of VEGF secretion by fibroblasts
Description: as §2

SMILES	increased secretion of PlGF, IL-8, EGF and endothelin-1 by endothelial cells, single agent [1]	increased secretion of HGF, IGFBP-2, uPA and VEGF by fibroblasts, single agent [2]	effect on MCP-1 secretion by fibroblasts, monosubstance [3]	effect on PlGF secretion rate [4]	effect on VEGF secretion [5]
Cc1cc(C2CCCCC2)n(O)c(=O)c1 [CPX, ciclopirox olamine]	Highly comparable increases; also recorded: main compound causing the observed upregulation	Highly comparable increases; also recorded: main compound causing the observed upregulation	neither S1P nor CPX were able to increase basal MCP-1 secretion; also recorded: No significant difference		
CCCCCCCCCCCCC/C=C/[C@@H](O)[C@@H](N)COP(=O)(O)O [S1P, sphingosine 1-phosphate]	none were observed	none were observed	neither S1P nor CPX were able to increase basal MCP-1 secretion; also recorded: No significant difference	did not show any effect	did not elicit measurable effects
